{"source": "patent US5410031A", "about": "“Nucleoside cotransporter protein cDNA” (The Regents of the University of California Office of …, priority 1992, dated 1995)", "key": {"[1]": {"tested_on": "SNST1c (chimeric Na+/nucleoside cotransporter SNST1)", "assay": "Uptake of radiolabelled substrates in Xenopus oocytes expressing SNST1c", "assay_type": "cell-based, rabbit", "details": "for transport of radiolabelled substrate by SNST1c: Xenopus oocytes injected with SNST1c RNA", "protocol": "(§1) Oocyte injections. Xenopus oocytes were dissected and injected, and transport was measured as described below. Stage V and VI oocytes (Dumont, J. Morphol. 136:153-180 (1972)) from Xenopus laevis (Xenopus One, Ann Arbor, Mich.) were dissected and defolliculated as described by Hediger et al., Proc. Natl. Acad. Sci. USA 84:2634-2637 (1987) and Coady et al., Arch. Biochem. Biophys. 265:73-81 (1990), both of which are incorporated by reference herein. Briefly, oocytes were hand-dissected from ovarian tissue of adult female Xenopus laevis. Individual oocytes were obtained by gentle agitation in Barth's solution (Silbernagl, Physiol. Rev. 68:912-1007 (1988)) 1.0% collagenase (to remove follicular cells) and 0.1% trypsin inhibitor for 60 min followed by a 30 to 60 min incubation in 100 mM K2 HP04, pH 6.5, 0.1% BSA (modified from Dumont, J. Morphol. 136:153-179 (1972)). Oocytes were maintained in Barth's solution at 18° C. After 16 to 24 hr, the healthy oocytes were injected with 50 nl of water or mRNA (0.2 to 1 mg/ml) and incubated in Barth's solution with gentamicin at 18° C. for another 3 to 8 days.\n(§2) Na^+ /nucleoside transporter activity was assayed by measuring the Na^+ -dependent uptake by the chimeric construct, SNST1c. […] Because of the sequence similarity to SGLT1, it was hypothesized that the transport would be Na^+ -dependent. Therefore, the uptake of ^22 Na^+ in the presence of potential substrates was monitored.\n(§3) Measurements were made of [^3 H] uridine uptake in oocytes expressing SNST1c (FIG. 4A and 4B). Uptakes were measured over 5 min in a buffer containing either 100 mM NaCl, choline chloride or LiCl as described by Coady et al., Arch. Biochem. Biophys. 283:130-134 (1990), incorporated by reference herein. [All of the solutions contained 2 mM KCL, 1 mM MgCl2, 1 mM CaCl2, 10 mM HEPES/Tris, pH 7.5 and either 100 mM NaCl (Na^+ transport buffer) or 100 mM choline-Cl (choline transport buffer). The uptake solutions contained radiolabeled substrate while the wash solutions contained nonradioactive substrate. Oocytes were injected with water as a control, or SNST1c cRNA (50 ng). Oocytes were preincubated for 30 min in substrate-free choline transport buffer when uptakes in Na^+ and choline were to be compared. Transport of substrate was assayed by placing 4-6 oocytes in 0.5 ml of radioactive uptake solution, preceded by a 30 min preincubation in a Na^+ -free (100 mM choline-Cl) solution when Na^+ -dependent transport was to be measured. Transport was stopped by washing the oocytes five times with 4 ml of ice-cold choline solution containing excess unlabeled substrate. The oocytes were individually dissolved in 1.0 ml of 10% SDS and assayed for radioactivity. All data are expressed as mean ±SD. FIG. 4A indicates cation dependence of 1 μM [^3 H]uridine uptake in oocytes expressing SNST1c 4 days post-injection. In addition, inhibition of 0.6 μM [^3 H] uridine uptake in oocytes by 1 mM nucleosides was determined (FIG. 4B). Uptakes were measured in Na^+ containing buffer (Coady et al., supra) Oocytes were injected with water as a control, or SNST1c cRNA (50 ng) ."}, "[2]": {"tested_on": "SNST1c (expressed Na+/nucleoside cotransporter)", "assay": "Inhibition of [3H]uridine / radiolabeled nucleoside uptake in oocytes expressing SNST1c", "assay_type": "cell-based, rabbit", "details": "for inhibition of [3H]uridine transport by SNST1c: 1 mM nucleoside, 0.6 μM [3H]uridine, Na+ containing buffer (FIG. 4B)", "protocol": "as §3\nUptake of radiolabeled nucleosides into Xenopus oocytes was measured in the presence or absence of Na^+ as described above in Example 1, and in the presence and absence of 1 mM phloridzin (Sigma, St. Louis, Mo.). […]"}, "[3]": {"tested_on": "Na+/glucose cotransporter protein", "details": "cited from earlier work"}, "[4]": {"tested_on": "Na+/nucleoside cotransport in the kidney brush border", "details": "Lee et al. 1990; cited from earlier work"}, "[5]": {"tested_on": "SNST1c (chimeric Na+/nucleoside cotransporter SNST1)", "assay": "22Na+ uptake in the presence of potential substrates in oocytes expressing SNST1c", "assay_type": "cell-based, rabbit", "details": "SNST1c-injected oocytes", "protocol": "as §1, §2, §3"}, "[6]": {"tested_on": "oocyte transporter (Na+/nucleoside cotransport in the oocyte membrane)", "assay": "Inhibition of endogenous Na+/nucleoside cotransport in the oocyte membrane", "assay_type": "cell-based, Xenopus laevis", "details": "endogenous transport of the oocyte membrane", "protocol": "as §3, with “Transport was stopped by washing the oocytes five times with 4 ml of ice-cold choline solution containing excess unlabeled substrate.” left out, “FIG. 4A indicates cation dependence of 1 μM [^3 H]uridine uptake in oocytes expressing SNST1c 4 days post-injection. In addition, inhibition of 0.6 μM [^3 H] uridine uptake in oocytes by 1 mM nucleosides was determined (FIG. 4B).” left out"}, "[7]": {"tested_on": "Na+/glucose cotransporter SGLT1", "details": "SGLT1-injected oocytes", "method": "Xenopus oocytes were dissected and injected, and transport was measured as described below. […] Briefly, oocytes were hand-dissected from ovarian tissue of adult female Xenopus laevis. […] Oocytes were maintained in Barth's solution at 18° C. After 16 to 24 hr, the healthy oocytes were injected with 50 nl of water or mRNA (0.2 to 1 mg/ml) and incubated in Barth's solution with gentamicin at 18° C. for another 3 to 8 days.\n[All of the solutions contained 2 mM KCL, 1 mM MgCl2, 1 mM CaCl2, 10 mM HEPES/Tris, pH 7.5 and either 100 mM NaCl (Na^+ transport buffer) or 100 mM choline-Cl (choline transport buffer). The uptake solutions contained radiolabeled substrate while the wash solutions contained nonradioactive substrate. Oocytes were injected with water as a control, or SNST1c cRNA (50 ng). […] Transport of substrate was assayed by placing 4-6 oocytes in 0.5 ml of radioactive uptake solution, preceded by a 30 min preincubation in a Na^+ -free (100 mM choline-Cl) solution when Na^+ -dependent transport was to be measured. […] The oocytes were individually dissolved in 1.0 ml of 10% SDS and assayed for radioactivity. All data are expressed as mean ±SD. […] Uptakes were measured in Na^+ containing buffer (Coady et al., supra) Oocytes were injected with water as a control, or SNST1c cRNA (50 ng) ."}, "[8]": {"tested_on": "SNST1c (chimeric Na+/nucleoside cotransporter SNST1)", "assay": "Uptake of radiolabelled substrates in Xenopus oocytes expressing SNST1c", "assay_type": "cell-based, rabbit", "details": "oocytes printed as SGLT1c, n=6 oocytes"}}}
{"molecule": "3-O-methylglucose", "values": [{"measurement": "transport of radiolabelled substrate by SNST1c", "setting": "[1]", "result": "none of these was transported"}]}
{"molecule": "O=c1ccn([C@H]2C[C@H](O)[C@@H](CO)O2)c(=O)[nH]1", "note": "[2-deoxyuridine]", "values": [{"measurement": "inhibition of [3H]uridine transport by SNST1c", "setting": "[2]", "result": "inhibited"}]}
{"molecule": "O=C(CCc1ccc(O)cc1)c1c(O)cc(O[C@@H]2O[C@H](CO)[C@@H](O)[C@H](O)[C@H]2O)cc1O", "note": "[4' glycoside]", "values": [{"measurement": "activity as inhibitor of glucose transport", "setting": "[3]; Diedrich 1990", "result": "inactive"}]}
{"molecule": "O=C(CCc1ccc(O)cc1)c1c(O)cc(O)cc1O[C@@H]1O[C@H](CO)[C@@H](O)[C@H](O)[C@H]1O", "note": "[Phloridzin]", "values": [{"measurement": "inhibition of the expressed Na+/nucleoside cotransporter", "setting": "[2]; 1 mM phloridzin, n=2, Xenopus oocytes", "result": 87, "unit": "%"}, {"measurement": "inhibition of Na+/nucleoside cotransport in the kidney brush border", "setting": "[4]", "result": "inhibits"}, {"measurement": "IC50", "setting": "[3]; mammalian intestine and kidney, competitive inhibition, read-out: concentration for fifty percent inhibition of sodium dependent sugar transport", "result": 5, "unit": "µM"}]}
{"molecule": "Nc1ncnc2c1ncn2[C@@H]1O[C@H](CO)[C@@H](O)[C@H]1O", "note": "[adenosine]", "values": [{"measurement": "inhibition of [3H]uridine transport by SNST1c", "setting": "[2]", "result": "inhibited"}]}
{"molecule": "C[C@H](N)C(=O)O", "note": "[alanine]", "values": [{"measurement": "transport of radiolabelled substrate by SNST1c", "setting": "[1]", "result": "none of these was transported"}]}
{"molecule": "C[N+](C)(C)CC(=O)O", "note": "[betaine]", "values": [{"measurement": "signal of 22Na+ uptake in the presence of potential substrate", "setting": "[5]", "result": "no signals"}]}
{"molecule": "O=C(O)CCCC[C@@H]1SC[C@@H]2NC(=O)N[C@@H]21", "note": "[biotin]", "values": [{"measurement": "transport of radiolabelled substrate by SNST1c", "setting": "[1]", "result": "none of these was transported"}]}
{"molecule": "C[C@H](CCC(=O)O)[C@H]1CC[C@H]2[C@@H]3[C@H](O)C[C@@H]4C[C@H](O)CC[C@]4(C)[C@H]3C[C@H](O)[C@]12C", "note": "[cholate]", "values": [{"measurement": "signal of 22Na+ uptake in the presence of potential substrate", "setting": "[5]", "result": "no signals"}]}
{"molecule": "Nc1ccn([C@@H]2O[C@H](CO)[C@@H](O)[C@H]2O)c(=O)n1", "note": "[cytidine]", "values": [{"measurement": "inhibition of [3H]uridine transport by SNST1c", "setting": "[2]", "result": "inhibited"}]}
{"molecule": "Nc1ccn([C@H]2CC[C@@H](CO)O2)c(=O)n1", "note": "[dideoxycytidine]", "values": [{"measurement": "inhibition of the oocyte Na+/nucleoside transporter", "setting": "[6]", "result": "did not inhibit"}]}
{"molecule": "Nc1nc2c(ncn2[C@@H]2O[C@H](CO)[C@@H](O)[C@H]2O)c(=O)[nH]1", "note": "[guanosine]", "values": [{"measurement": "inhibition of [3H]uridine transport by SNST1c", "setting": "[2]", "result": "inhibited"}]}
{"molecule": "CC(O)C(=O)O", "note": "(stereo not shown) [lactate]", "values": [{"measurement": "transport of radiolabelled substrate by SNST1c", "setting": "[1]", "result": "none of these was transported"}]}
{"molecule": "NCCCC[C@H](N)C(=O)O", "note": "[lysine]", "values": [{"measurement": "transport of radiolabelled substrate by SNST1c", "setting": "[1]", "result": "none of these was transported"}]}
{"molecule": "CNC(C)(C)C(=O)O", "note": "[methyl-aminoisobutyric acid]", "values": [{"measurement": "transport of radiolabelled substrate by SNST1c", "setting": "[1]", "result": "none of these was transported"}]}
{"molecule": "O[C@H]1[C@H](O)[C@@H](O)[C@H](O)[C@@H](O)[C@H]1O", "note": "[myoinositol]", "values": [{"measurement": "signal of 22Na+ uptake in the presence of potential substrate", "setting": "[5]", "result": "no signals"}]}
{"molecule": "N[C@@H](Cc1ccccc1)C(=O)O", "note": "[phenylalanine]", "values": [{"measurement": "transport of radiolabelled substrate by SNST1c", "setting": "[1]", "result": "none of these was transported"}]}
{"molecule": "O=C(O)[C@@H]1CCCN1", "note": "[proline]", "values": [{"measurement": "transport of radiolabelled substrate by SNST1c", "setting": "[1]", "result": "none of these was transported"}]}
{"molecule": "O=C(O)CCC(=O)O", "note": "[succinate]", "values": [{"measurement": "transport of radiolabelled substrate by SNST1c", "setting": "[1]", "result": "none of these was transported"}]}
{"molecule": "NCCS(=O)(=O)O", "note": "[taurine]", "values": [{"measurement": "transport of radiolabelled substrate by SNST1c", "setting": "[1]", "result": "none of these was transported"}]}
{"molecule": "Cc1ncc(C[n+]2csc(CCO)c2C)c(N)n1", "note": "[thiamine]", "values": [{"measurement": "signal of 22Na+ uptake in the presence of potential substrate", "setting": "[5]", "result": "no signals"}]}
{"molecule": "O=c1ccn([C@@H]2O[C@H](CO)[C@@H](O)[C@H]2O)c(=O)[nH]1", "note": "[uridine]", "values": [{"measurement": "inhibition of [3H]uridine transport by SNST1c", "setting": "[2]", "result": "inhibited"}, {"measurement": "3H-uridine uptake", "setting": "[7]; n=5 oocytes", "result": "309±78 fmol ^3 H-uridine/oocyte/hr"}, {"measurement": "3H-uridine uptake", "setting": "[1]; SNST1c-injected oocytes, n=5 oocytes", "result": "722±108 fmol ^3 H-uridine/oocyte/hr"}, {"measurement": "transport of radiolabelled substrate by SNST1c", "setting": "[1]", "result": "transported"}]}
{"molecule": "CO[C@H]1O[C@H](CO)[C@@H](O)[C@H](O)[C@H]1O", "note": "[αMDG, α-methyl-D-glucopyranose]", "values": [{"measurement": "14C-αMDG uptake", "setting": "[7]; n=6 oocytes", "result": "70±19", "unit": "pmol ^14 C-αMDG/oocyte/hr"}, {"measurement": "transport of radiolabelled substrate by SNST1c", "setting": "[1]", "result": "none of these was transported"}, {"measurement": "signal of 22Na+ uptake in the presence of potential substrate", "setting": "[5]", "result": "no signals"}, {"measurement": "14C-αMDG uptake", "setting": "[8]", "result": "0.5±0.1", "unit": "pmol ^14 C-αMDG/oocyte/hr"}]}
